# Data reported in a melting point compilation (Tetko et al.; mined from patent text by program, amines drawn as free bases though some values may be those of a salt).
row,SMILES,melting point [°C]
1,Nc1ncccc1-c1nc2ccc(-c3ccncc3)nc2n1-c1ccc(CNC(=O)c2ccccc2)cc1,231 to 233
2,COC(=O)c1oc(C)nc1-c1ccc2c(c1)CCCC2,96 to 97
3,COC(=O)[C@@H]1COC(=O)N1c1nc(-c2ccc(Br)cc2)cs1,165 to 167
4,O=C(NC(C(=O)O)c1ccc2c(c1)CCO2)OCc1ccccc1 (stereo not drawn),121 to 123
5,COC(=O)NNC(=S)Cc1ccc(F)cc1,150 to 152
6,Fc1ccc(-c2cc3ncnc(Nc4ccc5[nH]ccc5c4)c3s2)cc1,193 to 205
7,ClC1=Nc2ccccc2Sc2c1csc2Cl,163 to 165
8,Nc1ccnc(N2CCC(c3ccc(S(N)(=O)=O)cc3)CC2)c1,290 to 295
9,Cn1c(=O)c(C#N)c(Cl)c2ccccc21,235
10,Cc1c(C(=O)Nc2ccc(N3CCC(N(C)C)CC3)c(C#N)c2)cnn1-c1ccc(Cl)cc1,210 to 213
11,COc1ccc2c(n1)C1(CO2)C(=O)N(Cc2cnc(C(C)C)s2)c2cccc(Br)c21 (stereo not drawn),158 to 160
12,CC(C)OC(=O)Nc1ccc(N)c(N)c1,108 to 110
13,N#Cc1ccnc(C2=NC(c3ccc(F)cc3)(c3ccc(F)cc3)CN2)c1,206 to 208
14,CC(C)(O)c1ccnc(-c2ccc3nc(-c4n[nH]c5ccccc45)cn3c2)c1,255 to 259
15,COC(=O)c1cccc(Nc2nccc(-c3cn[nH]c3-c3ccc(F)cc3)n2)c1,> 265
16,O=C(CCCc1ccccc1)N(O)Cc1ccccc1,72 to 74
17,OCc1ccc2c(n1)COC(c1ccccc1)O2 (stereo not drawn),85 to 89
18,Cn1cc2c(=O)n(-c3ccc(Cl)cc3)nc-2c2ccccc21,322 to 323
19,CC(C)(CO)COc1ccc(N)cc1C#N,194 to 196

row,SMILES,melting point [°C]
1,CC(C)C1(C)NC(c2ccc3ccccc3n2)=NC1=O (stereo not drawn),112 to 117
2,O=C(O)C1=Cc2cc(-c3ccc(F)cc3)ccc2OC1C(F)(F)F (stereo not drawn),207 to 210
3,Cc1ccc(C)c(N2C(=O)CON(C)C2=S)c1,104 to 106
4,CSc1ccc(-c2nnc(Cl)cc2-c2ccccc2)cc1,158
5,COc1cccc(CO)c1C,63 to 64
6,N#Cc1cc2[nH]cc(C(=O)O)c2cc1-c1ccc(C2(CO)CC2)cc1,271 to 272
7,Cc1nc(-c2cccc(C(=O)Nc3ccc(Cl)cc3)c2)sc1C(=O)O,246 to 248
8,O=[N+]([O-])c1ccc(Cn2cncn2)cc1,98 to 100
9,CSCc1cn(C)c2c(F)cccc2c1=O,165 to 167
10,COc1cc2cc(C3=NNC(=O)CC3C)sc2cc1OC (stereo not drawn),204 to 206
11,CCOC(=O)C1=C(N)NC(c2ccccc2)=CC1c1ccccc1 (stereo not drawn),159
12,O=C(O)c1ccc(-c2nn(Cc3cccc(Cl)c3)c(=S)[nH]2)cc1,302
13,CC(C)(C)OC(=O)N1CCC(Oc2cccc3[nH]ncc23)C1 (stereo not drawn),196 to 198
14,CC(Cc1cccc([N+](=O)[O-])c1)[N+](=O)[O-] (stereo not drawn),56 to 58
15,CCOC(=O)c1cc2c(cn1)[nH]c1cccc(Oc3ncccn3)c12,273 to 275
16,NC(=O)N1CC(Oc2ccccn2)C1,133 to 137
17,Cc1c(N)ccc2c1C(=O)NS2(=O)=O,272 to 273
18,COc1ccc(Cn2c(=O)cc(-c3ccccn3)c3cnc(N4CCC[C@H]4CO)nc32)cc1Cl,184 to 186
19,O=C(Nc1nc(C(F)(F)F)co1)C1c2ccccc2Oc2ccccc21,222

row,SMILES,melting point [°C]
1,COCOc1ccc(C(=O)COc2cc(OCc3ccccc3)ccc2CO)c(OCc2ccccc2)c1,115 to 118
2,FC(F)c1nc2ccccc2n1-c1nc(Nc2cnc3ccccc3c2)nc(N2CCOCC2)n1,270 to 273
3,COC(=O)/C=C(/C#Cc1ccccc1)c1ccccc1,73 to 75
4,O=C(O)c1cc(=O)c2cc(C(F)(F)F)ccc2[nH]1,287 to 289
5,N#Cc1c(Br)c(C(F)(F)F)n(COC(=O)C2CC2)c1-c1ccc(Cl)cc1,122 to 123
6,C=CCOc1ccc(COc2ccc(CC(=O)O)cc2Cl)cc1Cl,132 to 134
7,Cc1nn(C2(F)C=CC([N+](=O)[O-])=CC2)c(=O)n1C(F)F (stereo not drawn),82 to 83
8,NC(=O)c1sc2nccc(N3CCCN(c4ccc(C(F)(F)F)cc4)CC3)c2c1N,204 to 208
9,Cc1nc2c(N)nc3cccnc3c2n1CC1(O)CCN(C(=O)N2CCOCC2)CC1,245 to 248
10,CC(C)(C)c1cc(CNn2ccnc2N2CCOCC2)cc(C(C)(C)C)c1O,161 to 163
11,N#CC=C1CCN(c2ccc(N3C[C@H](CNC(=S)CO)OC3=O)cc2F)CC1,102 to 105
12,COC(=O)c1cccc(Nc2ccc(OC)cc2)c1,120
13,CC(C)(C)c1cc(-c2csc(C3(N4CCOCC4)CCOCC3)n2)cc(C(C)(C)C)c1O,172 to 174
14,CC(C)c1ccc(C(=O)C2=C(O)C(=O)N(c3ccc(O)nn3)C2c2ccc(OC(F)(F)F)cc2)cc1 (stereo not drawn),255
15,O=Cc1cc(Br)c(O)c(OCc2ccccc2)c1,160 to 162
16,CC1OC(=O)Nc2ccc(-c3cccc(Cl)c3)cc21 (stereo not drawn),155 to 156
17,COc1cc(C2=NNC(=O)CC2)ccc1O,209 to 210
18,C1CNCCNCCOCCNCCN1,80 to 81

# Further lines, results first:
row,melting point [°C],SMILES
1,104 to 105,CC(C)(C)OC(=O)NCCOc1noc2ccc(F)cc12
2,142 to 143,COP(=O)(CCC(C)(C)c1ccc(O)cc1O)OC
3,81 to 82,CC(=O)OCC(C(OC(C)=O)c1ccc(Br)cc1)[N+](=O)[O-] (stereo not drawn)
4,50 to 53.5,C=C(c1ccc(NC(=O)OC(C)(C)C)c(C)c1)C(F)(F)C(F)(F)C(F)(F)F
5,180,CCCCNC(=S)N1CCc2[nH]cnc2C1CC (stereo not drawn)
6,128,CN(C(F)F)S(=O)(=O)c1ccccc1S(N)(=O)=O
7,264 to 265,CNC(=O)[C@H]1CN(c2cc(F)c3c(c2)CCC(=O)N3C)C(=O)O1
8,100 to 101,COc1ccc(CCNC(=O)OC(C)(C)C)cc1O
9,240,Cc1ccc2c(c1)c1cc(-c3ccc(Cl)cc3Cl)c(=O)n(C)c1n2CCO
10,192 to 193,CCOC(=O)/C=C/c1cnc2c(c1)C(=O)N(C)c1ccc(Cl)nc1N2CC
11,118 to 120,CCCCCCCCC1C=CC(Oc2ccc(C(=O)O)o2)=C2N=C3CCCC(C)(C)C3=C21 (stereo not drawn)
12,80 to 82,CCCc1c(OCCCC(=O)NCCCCc2cccnc2)ccc(C(C)=O)c1O
13,175,CCC(Cc1c(C)cc(C(C)(C)C)c(O)c1C)(C(=O)OC1CC(C)(C)NC(C)(C)C1)C(=O)OC1CC(C)(C)NC(C)(C)C1
14,195 to 197,O=S(=O)(N=CN1CCOCC1)c1cc(Br)cc(Br)c1
15,218 to 220,CCOC(=O)c1[nH]c2cc(Cl)cc(Cl)c2c1I
16,164 to 168,CCOC(=O)C=Cc1ccc2c(c1)c1cc(C=CC(=O)OCC)ccc1n2CC
17,87 to 90,Cc1cc(Cl)c2c(n1)C(O)CCC2 (stereo not drawn)
18,116,COC(=O)c1cccc(F)c1S(C)(=O)=O
19,135 to 137,COC(=O)C(=Cc1ccc(OC)c(OC)c1)NC(=O)c1ccccc1
20,148 to 149,CC(=O)N(N(CCCl)S(C)(=O)=O)S(C)(=O)=O
21,156,CCc1nc(=O)n(C)c2sccc12
22,260 to 266,COc1ccc(-c2ccc3c(=O)[nH]c(=O)[nH]c3n2)cc1COC(=O)C(C)(C)C
23,265,CC(C)(C)OC(=O)Cn1c(C(=O)O)cc2cnccc21
24,79 to 81,CCCCOC(=O)Cc1nc(-c2ccc(Cl)cc2)oc1-c1ccsc1

row,melting point [°C],SMILES
1,242 to 244,CC(C)C1(C)N=C(c2nc3ccsc3cc2C(=O)O)NC1=O (stereo not drawn)
2,177 to 179,CCOc1ccccc1C(=O)Nc1c(OC)cccc1C(N)=O
3,123 to 124,CCOC(=O)c1c(C)nc2c(c1Cl)c1ccccc1n2C
4,55 to 56,CCc1scc(C(=O)OC)c1NC(=O)C(F)(F)F
5,147 to 148,CCc1c(C)c(NC(=O)NCCO)c(C)c2c1OCC2c1ccc(C(C)C)cc1 (stereo not drawn)
6,89 to 92,COC(=O)Cn1c(C(=O)Nc2nc(-c3cc(OC)ccc3OC)c(CC3CCCCC3)s2)cc2cc(C)cc(C)c21
7,> 275,Cn1c(=O)c2[nH]c(/C=C/c3ccc4c(c3)OCO4)nc2n(C)c1=O
8,75 to 80,CC(C)C(=O)NC[C@H]1CN(c2ccc3c(c2)CCCc2cnn(C(=O)C(C)C)c2-3)C(=O)O1
9,108 to 110,COc1ccc(C=CC(=O)c2c(OC)cc(OC)cc2OC2OC(COC(C)=O)C(OC(C)=O)C(OC(C)=O)C2NC(C)=O)cc1 (stereo not drawn)
10,240 to 242,Cc1ccc2sc(S(=O)(=O)c3cn[nH]c(=O)c3)cc2c1
11,70 to 73,CCOC(=O)C(=O)Nc1sc(C(=O)OCC)c(CC)c1[N+](=O)[O-]
12,62 to 63,CCOc1ccc(CCCCC=CC(=O)O)cc1
13,92 to 94,CCCCSc1c2c(=O)n(C)c(=O)n(CC(C)C)c2cn1Cc1cccc2ccccc12
14,109 to 110,CC(=O)N[C@@H](C)COC1CCN(c2nc3cc(OCC4CCC4)ccc3o2)CC1
15,192 to 195,NC(=O)C(CCc1cc(Cl)ccc1N1CCCCC1)c1ccc(C(=O)O)cc1 (stereo not drawn)
16,213 to 214,COc1nc(NC(=O)NS(=O)(=O)c2ccccc2OC(F)F)nc(NC(C)(C)C)n1
17,114 to 115,Cc1ccc(C)c(OCCCC(C)(C)C(=O)Nc2cccc(C3=NCCCO3)c2)c1
18,202,CC(C)(C)OC(=O)NC1CCN(CCn2c(=O)ccc3ccc(C#N)cc32)CC1
19,98 to 100,COC(=O)Cc1c(C)n(Cc2ccccc2OC)c2ccc(OC)cc12
20,145 to 148,CCCCNC(=O)NS(=O)(=O)c1ccccc1-c1ccc(C(=O)OC)o1
21,114 to 115,COc1nc2ccccc2cc1N(C(=O)N1CCN(c2cc(C)cc(C)c2)CC1)C(C)C
22,172 to 174,COC(=O)C1=C(C)N=C(OC)N(C(=O)Oc2ccc([N+](=O)[O-])cc2)C1c1ccc(F)c(F)c1 (stereo not drawn)
23,138 to 140,COC(=O)c1ccc(O)c(C(=O)CC(=O)C=Cc2ccccc2)c1
